The record followed here is patent US4743614A, “Amino acid derivatives and processes for preparation thereof” (Fujisawa Pharmaceutical Co., Ltd., priority 1985, dated 1988).

In data set [1] the test system is colony forming abilities of bone marrow cells (CFU-c). The data set is described as follows: Restorative effect on suppressed colony forming abilities of bone marrow cells in immunodeficient hosts (mitomycin C-treated mice). It counts as in vivo, BDF1 mice. Conditions: mitomycin C 1 mg/kg for 2 days, day 9, n = 7-9, **P < 0.01. The protocol:
Restorative effect on suppressed colony forming abilities of bone marrow cells in immunodeficient hosts: BDF1 mice (female, 8 weeks aged) were obtained from Shizuoka Agricultural Cooperative Association for Laboratory Animal, Hamamatsu, Japan. The mice were intraperitoneally injected with mitomycin C (1 mg/kg) every day for 2 days and FR-900490 was also administered to mice intraperitoneally every day for 5 days. At 9th day after first administration of mitomycin C, mice were sacrificed and the colony forming abilities of bone marrow cells (CFU-c) were measured. The schedule of the above test is shown below. [drawing 6] Femoral marrow was harvested from mice by flushing the bone cavity with α-Minimum Essential Medium (α-MEM) supplemented with penicillin G (100 units/ml), streptomycin (100 μg/ml) and 5% fetal bovine serum (FBS). The bone marrow cells were pelleted by centrifugation (500×g, 10 minutes) and resuspended in enriched α-MEM. Mononuclear cells were counted in a hemocytometer and the cells were diluted to 1 ×10^5 cells/ml. Then, 1 ml of bone marrow cells, 1 ml of FBS, 2 ml of 2.2% methyl cellulose in α-MEM and 1 ml of L-929 cell conditioned medium were added to a sterilized tube and mixed by use of automatic mixer. One ml of mixture was plated in 35 mm plastic petri dish and incubated for 7 days in a fully humidified atmosphere of 5% CO2 in air. Triplicate plates were prepared for each experiment. Colonies composed of 50 or more cells were scored on an inverted microscope.

The subject of a further data set is B-16 melanoma. The data set is described as follows: Inhibitory activity for tumor metastasis. The class given is in vivo, BDF1 mice. Conditions: 14th day after B-16 melanoma injection, n = 10, **P < 0.01. On the procedure: Inhibitory activity for tumor metastasis
B-16 Melanoma cells were grown in a Roswel park memorial Institute (RPMI)-1640 medium supplemented with penicillin G (100 units/ml), streptomycin (100 μg/ml) and 10% FBS to subsconfiluency, and the monolayers were rinsed with an aqueous solution of trypsin. Hanks' balanced salt (HBS) solution (Ca-Mg-free) containing the antibiotics described above was added to the monolayers and the monolayer was dislodged by gentle pipetting, and the cells were washed with HBS solution containing the antibiotics described above by centrifugation. The cells were resuspended in HBS solution containing the antibiotics described above and kept at cold temperature. BDF1 mice (female, 8 weeks aged) were injected intravenously with 2×10^5 cells of B-16 melanoma in 0.2 ml of HBS solution containing the antibiotics described above. FR-900490 was intraperitoneally administered once a day at one day and two days before and at one day and four days after the injection of B-16 melanoma. At 14th day after injection of B-16 melanoma, the mice were killed, and the lungs were removed, rinsed in distilled water containing heparin and the number of tumor foci was determined by counting the surface colonies under a dissecting microscope.
The schedule of the above test is shown. [drawing 7]

The subject of data set [2] is direct plaque forming cells (PFC-SRBC). The data set is described as follows: Restorative effect on suppressed antibody forming abilities in immunodeficient hosts. It counts as in vivo, BDF1 mice. The protocol:
Restorative Effect on Suppressed Antibody Forming Abilities in Immunodeficient Hosts
BDF1 mice (female, 8 weeks aged) were injected intraperitoneally with Mitomycin C (1 mg/kg) from four days before immunization with 5×10^8 Sheep Red Blood Cells (SRBC), every day for three days. Test samples also were administered to mice intraperitoneally from four days before immunization, every day for five days. At day 9, mice were sacrificed and the number of direct plaque forming cells per spleen (PFC-SRBC/spleen) was measured by using Cunningham modification method.
The schedule of the above test is shown. [drawing 8]

The nature of another data set: Solubility. The class given is physicochemical.

On to `C[C@@H](N[C@@H](Cc1c[nH]cn1)C(=O)O)[C@H](NC(=O)[C@@H](N)CC(N)=O)C(=O)O` [FR-900490, (2S,3R)-2-[[(2S)-2-amino-3-carbamoylpropionyl]amino]-3-[[(1S)-1-carboxy-2-(4-imidazolyl)ethyl]amino]butyric acid], for which the “CFU-c (mean ± SE)” value in data set [1] (1 mg/kg i.p. every day for 5 days) came out at 59.3 ± 2.86; in data set [1] (10 mg/kg i.p. every day for 5 days) it was 70.4 ± 6.9; in data set [1] (100 mg/kg i.p. every day for 5 days), 57.2 ± 2.51. Further, the “No. of colonies on the lung mean ± SE” value with B-16 melanoma (1 mg/kg i.p.) was 39.7 ± 6.4; in the data set with B-16 melanoma (10 mg/kg i.p.), 23.4 ± 3.3; in the data set with B-16 melanoma (100 mg/kg i.p.), 77.9 ± 27.4. Moreover, the “PFC-SRBC/spleen (average number of 5 mice/group)” value in data set [2] (3 mg/kg i.p., mitomycin C-treated) is recorded as 14.96 × 10^4 PFC-SRBC/spleen; in data set [2] (10 mg/kg i.p., mitomycin C-treated), 17.49 × 10^4 PFC-SRBC/spleen; in data set [2] (30 mg/kg i.p., mitomycin C-treated) it was 16.30 × 10^4 PFC-SRBC/spleen; in data set [2] (100 mg/kg i.p., animals not administered mitomycin C), 16.83 × 10^4 PFC-SRBC/spleen; in data set [2] (100 mg/kg i.p., mitomycin C-treated) it was 21.12 × 10^4 PFC-SRBC/spleen. The Solubility entry in the data set “Solubility” (Ethyl acetate) was “Insoluble”; in “Solubility” (Methanol), “Sparingly soluble”; in the data set “Solubility” (Water), “Soluble”; in “Solubility” (acetone), “Insoluble”; in “Solubility” (chloroform) it was “Insoluble”; in “Solubility” (ethanol), “Sparingly soluble”.
